In this data set the test system is rodent lifetime carcinogenesis bioassay, tumor incidence TD50. In words: chronic cancer bioassays in animals – CPDB, compiled studies (AID 1745844).

Active and inactive are the calls of the source. The rule behind the calls is not given here.

For orientation: TD50 means the dose at which the toxic effect under study appears in half of the subjects. In the case of `Nc1ccc(Cl)cc1`, under “mouse, strain B6C3F1, females, by gavage, site: any site (literature study), lesion: several types, types named in the paper, dosed 103 weeks, study length 105 weeks”, the carcinogen call was “negative (inactive)”. Also, the TD50 runs as follows: (mouse, strain B6C3F1, females, by gavage, site: liver, lesion: hepatocellular adenoma + hepatocellular carcinoma + neoplastic nodule, dosed 103 weeks, study length 105 weeks) 176 mg/kg/day; (mouse, strain B6C3F1, males, by gavage, site: all sites + liver, lesion: hemangiosarcoma + hepatocellular adenoma + hepatocellular carcinoma, dosed 103 weeks, study length 105 weeks) 56 mg/kg/day; (mouse, strain B6C3F1, males, by gavage, site: all sites, lesion: hemangiosarcoma, dosed 103 weeks, study length 105 weeks) 89.5 mg/kg/day; (mouse, strain B6C3F1, males, by gavage, site: any site (literature study), lesion: several types, types named in the paper, dosed 103 weeks, study length 105 weeks) 83.7 mg/kg/day; (mouse, strain B6C3F1, males, by gavage, site: liver, lesion: hepatocellular adenoma + hepatocellular carcinoma + neoplastic nodule, dosed 103 weeks, study length 105 weeks) 49.3 mg/kg/day; (mouse, strain B6C3F1, males, by gavage, site: liver, lesion: hepatocellular adenoma + hepatocellular carcinoma, dosed 103 weeks, study length 105 weeks) 49.3 mg/kg/day. The TD50 runs as follows: (mouse, strain B6C3F1, males, by gavage, site: liver, lesion: hepatocellular carcinoma, dosed 103 weeks, study length 105 weeks) 33.8 mg/kg/day; (mouse, strain B6C3F1, males, by gavage, site: lung, lesion: alveolar/bronchiolar adenoma + alveolar/bronchiolar carcinoma, dosed 103 weeks, study length 105 weeks) 2780 mg/kg/day; (rat, strain Fischer 344, females, by gavage, site: adrenal medulla, lesion: pheochromocytoma, benign, dosed 103 weeks, study length 105 weeks) 105 mg/kg/day; (rat, strain Fischer 344, females, by gavage, site: any site (literature study), lesion: several types, types named in the paper, dosed 103 weeks, study length 105 weeks) 145 mg/kg/day; (rat, strain Fischer 344, females, by gavage, site: spleen, lesion: fibrosarcoma + osteosarcoma, dosed 103 weeks, study length 105 weeks) 232 mg/kg/day; (rat, strain Fischer 344, males, by gavage, site: adrenal medulla, lesion: pheochromocytoma benign, bilateral + pheochromocytoma, benign, dosed 103 weeks, study length 105 weeks) 14.8 mg/kg/day. The TD50 reads like this: (rat, strain Fischer 344, males, by gavage, site: adrenal medulla, lesion: pheochromocytoma benign, bilateral + pheochromocytoma, malignant + pheochromocytoma, benign, dosed 103 weeks, study length 105 weeks) 13.3 mg/kg/day; (rat, strain Fischer 344, males, by gavage, site: any site (literature study), lesion: several types, types named in the paper, dosed 103 weeks, study length 105 weeks) 20.8 mg/kg/day; (rat, strain Fischer 344, males, by gavage, site: spleen, lesion: fibrosarcoma + fibroma, dosed 103 weeks, study length 105 weeks) 16.9 mg/kg/day; (rat, strain Fischer 344, males, by gavage, site: spleen, lesion: fibrosarcoma + hemangiosarcoma + osteosarcoma, dosed 103 weeks, study length 105 weeks) 7.62 mg/kg/day; (rat, strain Fischer 344, males, by gavage, site: spleen, lesion: fibrosarcoma + osteosarcoma, dosed 103 weeks, study length 105 weeks) 7.9 mg/kg/day; (rat, strain Fischer 344, males, by gavage, site: spleen, lesion: fibrosarcoma, dosed 103 weeks, study length 105 weeks) 19 mg/kg/day. Further, the TD50 by setting is: (rat, strain Fischer 344, males, by gavage, site: spleen, lesion: hemangiosarcoma, dosed 103 weeks, study length 105 weeks) 107 mg/kg/day; (rat, strain Fischer 344, males, by gavage, site: spleen, lesion: osteosarcoma, dosed 103 weeks, study length 105 weeks) 15.5 mg/kg/day.

`CC1=C(C(=O)OC(C)C)C(c2cccc([N+](=O)[O-])c2)C(C(=O)OC2CN(C(c3ccccc3)c3ccccc3)C2)=C(N)N1` (centres undefined): the carcinogen call by setting is: (mouse, strain B6C3F1, females, by gavage, site: any site (literature study), lesion: several types, types named in the paper, dosed 78 weeks, study length 78 weeks) “negative (inactive)”; (mouse, strain B6C3F1, females, by gavage, site: liver, lesion: hepatocellular adenoma, dosed 78 weeks, study length 78 weeks) “negative (inactive)”; (mouse, strain B6C3F1, females, by gavage, site: liver, lesion: hepatocellular carcinoma, dosed 78 weeks, study length 78 weeks) “negative (inactive)”; (mouse, strain B6C3F1, females, by gavage, site: lung, lesion: alveolar/bronchiolar carcinoma, dosed 78 weeks, study length 78 weeks) “negative (inactive)”; (mouse, strain B6C3F1, males, by gavage, site: liver, lesion: hepatocellular adenoma, dosed 78 weeks, study length 78 weeks) “negative (inactive)”; (mouse, strain B6C3F1, males, by gavage, site: liver, lesion: hepatocellular carcinoma, dosed 78 weeks, study length 78 weeks) “negative (inactive)”. Besides, the carcinogen call (rat, strain F344/DuCrj, females, by gavage, site: any site (literature study), lesion: several types, types named in the paper, dosed 104 weeks, study length 104 weeks) was “negative (inactive)”; the carcinogen call (rat, strain F344/DuCrj, females, by gavage, site: liver, lesion: hepatocellular adenoma, dosed 104 weeks, study length 104 weeks) was “negative (inactive)”; the carcinogen call (rat, strain F344/DuCrj, females, by gavage, site: liver, lesion: hepatocellular carcinoma, dosed 104 weeks, study length 104 weeks) is “negative (inactive)”; the carcinogen call (rat, strain F344/DuCrj, males, by gavage, site: any site (literature study), lesion: several types, types named in the paper, dosed 104 weeks, study length 104 weeks) was “negative (inactive)”. Further, the TD50 is, setting by setting: (mouse, strain B6C3F1, females, by gavage, site: lung, lesion: alveolar/bronchiolar adenoma, dosed 78 weeks, study length 78 weeks) 217 mg/kg/day (inactive); (mouse, strain B6C3F1, males, by gavage, site: any site (literature study), lesion: several types, types named in the paper, dosed 78 weeks, study length 78 weeks) 83.5 mg/kg/day (inactive); (mouse, strain B6C3F1, males, by gavage, site: lung, lesion: alveolar/bronchiolar adenoma, dosed 78 weeks, study length 78 weeks) 65 mg/kg/day (inactive); (mouse, strain B6C3F1, males, by gavage, site: lung, lesion: alveolar/bronchiolar carcinoma, dosed 78 weeks, study length 78 weeks) 227 mg/kg/day (inactive); (rat, strain F344/DuCrj, males, by gavage, site: liver, lesion: hepatocellular adenoma, dosed 104 weeks, study length 104 weeks) 117 mg/kg/day (inactive); (rat, strain F344/DuCrj, males, by gavage, site: liver, lesion: hepatocellular carcinoma, dosed 104 weeks, study length 104 weeks) 237 mg/kg/day (inactive).

With `COC(=O)C1=C(C)NC(C)=C(C(=O)OCCc2ccc(N3CCN(C(c4ccccc4)c4ccccc4)CC3)cc2)C1c1cccc([N+](=O)[O-])c1` (centres undefined), the TD50 is 293 mg/kg/day (inactive) (mouse, strain B6C3F1, females, in feed, site: any site (literature study), lesion: several types, types named in the paper, dosed 78 weeks, study length 78 weeks); 714 mg/kg/day (inactive) (mouse, strain B6C3F1, females, in feed, site: liver, lesion: hepatocellular adenoma, dosed 78 weeks, study length 78 weeks); 243 mg/kg/day (inactive) (mouse, strain B6C3F1, females, in feed, site: lung, lesion: alveolar/bronchiolar adenoma, dosed 78 weeks, study length 78 weeks); 898 mg/kg/day (inactive) (mouse, strain B6C3F1, males, in feed, site: liver, lesion: hepatocellular carcinoma, dosed 78 weeks, study length 78 weeks); 46.1 mg/kg/day (inactive) (rat, strain F344/DuCrj, females, in feed, site: any site (literature study), lesion: several types, types named in the paper, dosed 104 weeks, study length 104 weeks); 509 mg/kg/day (inactive) (rat, strain F344/DuCrj, females, in feed, site: liver, lesion: hepatocellular adenoma, dosed 104 weeks, study length 104 weeks). For the same compound, the carcinogen call runs as follows: (mouse, strain B6C3F1, females, in feed, site: lung, lesion: adenocarcinoma, dosed 78 weeks, study length 78 weeks) “negative (inactive)”; (mouse, strain B6C3F1, males, in feed, site: any site (literature study), lesion: several types, types named in the paper, dosed 78 weeks, study length 78 weeks) “negative (inactive)”; (mouse, strain B6C3F1, males, in feed, site: liver, lesion: hepatocellular adenoma, dosed 78 weeks, study length 78 weeks) “negative (inactive)”; (mouse, strain B6C3F1, males, in feed, site: lung, lesion: adenocarcinoma, dosed 78 weeks, study length 78 weeks) “negative (inactive)”; (mouse, strain B6C3F1, males, in feed, site: lung, lesion: alveolar/bronchiolar adenoma, dosed 78 weeks, study length 78 weeks) “negative (inactive)”; (rat, strain F344/DuCrj, males, in feed, site: any site (literature study), lesion: several types, types named in the paper, dosed 104 weeks, study length 104 weeks) “negative (inactive)”. Moreover, the carcinogen call (rat, strain F344/DuCrj, males, in feed, site: liver, lesion: hepatocellular adenoma, dosed 104 weeks, study length 104 weeks) was “negative (inactive)”.

As for `Oc1ccc2c(c1)OCO2`, the TD50 is, setting by setting: (mouse, strain B6C3F1, females, in feed, site: forestomach, lesion: sarcoma, dosed 96 weeks, study length 96 weeks) 44800 mg/kg/day; (mouse, strain B6C3F1, females, in feed, site: forestomach, lesion: squamous-cell carcinoma, dosed 96 weeks, study length 96 weeks) 8330 mg/kg/day; (mouse, strain B6C3F1, females, in feed, site: liver, lesion: hyperplastic nodule, dosed 96 weeks, study length 96 weeks) 44800 mg/kg/day; (mouse, strain B6C3F1, males, in feed, site: forestomach, lesion: squamous-cell carcinoma, dosed 96 weeks, study length 96 weeks) 3070 mg/kg/day; (mouse, strain B6C3F1, males, in feed, site: lung, lesion: adenoma, dosed 96 weeks, study length 96 weeks) 41300 mg/kg/day; (mouse, strain B6C3F1, males, in feed, site: stomach, glandular, lesion: sarcoma, dosed 96 weeks, study length 96 weeks) 41300 mg/kg/day. Also, the TD50 was 1090 mg/kg/day (rat, strain F344/DuCrj, females, in feed, site: forestomach, lesion: papilloma, dosed 104 weeks, study length 104 weeks); 6500 mg/kg/day (rat, strain F344/DuCrj, females, in feed, site: forestomach, lesion: squamous-cell carcinoma, dosed 104 weeks, study length 104 weeks); 1350 mg/kg/day (rat, strain F344/DuCrj, males, in feed, site: forestomach, lesion: papilloma, dosed 104 weeks, study length 104 weeks); 708 mg/kg/day (rat, strain F344/DuCrj, males, in feed, site: forestomach, lesion: several types, types named in the paper, dosed 60 weeks, study length 60 weeks); 3920 mg/kg/day (rat, strain F344/DuCrj, males, in feed, site: forestomach, lesion: squamous-cell carcinoma, dosed 60 weeks, study length 60 weeks); 1540 mg/kg/day (rat, strain F344/DuCrj, males, in feed, site: forestomach, lesion: squamous-cell carcinoma, dosed 104 weeks, study length 104 weeks). Moreover, the TD50 is, setting by setting: (rat, strain F344/DuCrj, males, in feed, site: forestomach, lesion: squamous-cell papilloma, dosed 60 weeks, study length 60 weeks) 909 mg/kg/day; (rat, strain F344/DuCrj, males, in feed, site: stomach, glandular, lesion: adenoma, dosed 104 weeks, study length 104 weeks) 16200 mg/kg/day.

The record behind these values is PubChem BioAssay AID1745844 (Carcinogenic Potency Database (CPDB), 2022).
